Data taken from ChEMBL document CHEMBL4265887 (Bioorg Med Chem Lett, 2018).
≈ marks a conversion by molar mass, not a printed value. Calls of active or inactive are those of the source. The rule behind the calls is not given here.

Experiments:
HCT-116 [1] = experiment: Cytotoxicity against human HCT116 cells assessed as reduction in cell viability after 48 hrs by MTT assay; format: functional, cell-based; details: HCT-116, 48 h
HCT-15 = experiment: Cytotoxicity against human HCT15 cells assessed as reduction in cell viability after 48 hrs by MTT assay; format: functional, cell-based; details: HCT-15, 48 h
Aurora kinase A = target: T1, Aurora kinase A (Homo sapiens, UniProt O14965); experiment: Inhibition of recombinant Aurora A (unknown origin) using TAMRA-PKAtide as substrate after 30 mins by fluorescence polarization assay
T1 sequence (O14965 whole entry): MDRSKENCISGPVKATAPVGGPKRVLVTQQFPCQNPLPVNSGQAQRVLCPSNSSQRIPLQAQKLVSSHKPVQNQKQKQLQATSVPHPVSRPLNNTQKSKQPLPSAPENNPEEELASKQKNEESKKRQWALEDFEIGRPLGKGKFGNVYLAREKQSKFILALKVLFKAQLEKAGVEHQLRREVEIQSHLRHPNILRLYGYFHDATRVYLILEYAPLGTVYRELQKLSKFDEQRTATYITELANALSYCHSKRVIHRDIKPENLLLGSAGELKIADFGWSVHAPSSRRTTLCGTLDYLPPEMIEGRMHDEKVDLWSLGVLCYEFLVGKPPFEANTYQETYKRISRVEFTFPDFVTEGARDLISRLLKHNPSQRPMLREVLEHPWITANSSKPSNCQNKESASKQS

Aurora kinase B = Aurora kinase B (Homo sapiens, UniProt Q96GD4); experiment: Inhibition of recombinant Aurora B (unknown origin) using TAMRA-PKAtide as substrate after 1 hr by fluorescence polarization assay
HCT-116 [2] = experiment: Induction of apoptosis in human HCT116 cells at 100 nM after 72 hrs by Annexin V-FITC staining-based flow cytometric analysis; format: functional, cell-based
HCT-116 [3] = experiment: Inhibition of cytokinesis in human HCT116 cells at 100 nM after 24 hrs by propidium iodide/RNase staining-based flow cytometric analysis; format: functional, cell-based
HCT-116 [4] = experiment: Induction of apoptosis in human HCT116 cells at 1 uM after 72 hrs by Annexin V-FITC/propidium iodide staining-based flow cytometric analysis; format: functional, cell-based
HCT-116 [5] = experiment: Inhibition of cytokinesis in human HCT116 cells at 1 uM after 24 hrs by propidium iodide/RNase staining-based flow cytometric analysis; format: functional, cell-based
[6] = Solubility of the compound in phosphate buffer of pH 2 after 24 hrs by RP-HPLC analysis; format: physicochemical
HCT-116 [7] = experiment: Synergistic cytotoxicity against human HCT116 cells assessed as reduction in cell viability by measuring combination index at 1:1 compound to dasatinib ratio after 48 hrs by MTT assay; format: functional
HT-29 [8] = experiment: Synergistic cytotoxicity against human HT-29 cells assessed as reduction in cell viability by measuring combination index at 1:1 compound to GSK2126458 ratio after 48 hrs by MTT assay; format: functional
HT-29 [9] = experiment: Synergistic cytotoxicity against human HT-29 cells assessed as reduction in cell viability by measuring combination index at 1:1 compound to dasatinib ratio after 48 hrs by MTT assay; format: functional
HT-29 [10] = experiment: Synergistic cytotoxicity against human HT-29 cells assessed as reduction in cell viability by measuring combination index at 1:1 compound to crizotinib ratio after 48 hrs by MTT assay; format: functional
HT-29 [11] = experiment: Synergistic cytotoxicity against human HT-29 cells assessed as reduction in cell viability by measuring combination index at 1:1 compound to lonafarnib ratio after 48 hrs by MTT assay; format: functional
[12] = target: Proto-oncogene tyrosine-protein kinase Src (Homo sapiens) (UniProt P12931); experiment: Inhibition of c-Src (unknown origin) at 10 uM
[13] = target: Tyrosine-protein kinase ABL1 (Homo sapiens) (UniProt P00519); experiment: Inhibition of ABL (unknown origin) at 10 uM
[14] = target: Serine/threonine-protein kinase PAK 4 (Homo sapiens) (UniProt O96013); experiment: Inhibition of PAK4 (unknown origin) at 10 uM
[15] = target: High affinity nerve growth factor receptor (Homo sapiens) (UniProt P04629); experiment: Inhibition of TrkA (unknown origin) at 10 uM
[16] = target: Epithelial discoidin domain-containing receptor 1 (Homo sapiens) (UniProt Q08345); experiment: Inhibition of DDR1 (unknown origin) at 10 uM
Epithelial discoidin domain-containing receptor 1 (Homo sapiens), sequence (Q08345 whole entry, the tested form may be a part): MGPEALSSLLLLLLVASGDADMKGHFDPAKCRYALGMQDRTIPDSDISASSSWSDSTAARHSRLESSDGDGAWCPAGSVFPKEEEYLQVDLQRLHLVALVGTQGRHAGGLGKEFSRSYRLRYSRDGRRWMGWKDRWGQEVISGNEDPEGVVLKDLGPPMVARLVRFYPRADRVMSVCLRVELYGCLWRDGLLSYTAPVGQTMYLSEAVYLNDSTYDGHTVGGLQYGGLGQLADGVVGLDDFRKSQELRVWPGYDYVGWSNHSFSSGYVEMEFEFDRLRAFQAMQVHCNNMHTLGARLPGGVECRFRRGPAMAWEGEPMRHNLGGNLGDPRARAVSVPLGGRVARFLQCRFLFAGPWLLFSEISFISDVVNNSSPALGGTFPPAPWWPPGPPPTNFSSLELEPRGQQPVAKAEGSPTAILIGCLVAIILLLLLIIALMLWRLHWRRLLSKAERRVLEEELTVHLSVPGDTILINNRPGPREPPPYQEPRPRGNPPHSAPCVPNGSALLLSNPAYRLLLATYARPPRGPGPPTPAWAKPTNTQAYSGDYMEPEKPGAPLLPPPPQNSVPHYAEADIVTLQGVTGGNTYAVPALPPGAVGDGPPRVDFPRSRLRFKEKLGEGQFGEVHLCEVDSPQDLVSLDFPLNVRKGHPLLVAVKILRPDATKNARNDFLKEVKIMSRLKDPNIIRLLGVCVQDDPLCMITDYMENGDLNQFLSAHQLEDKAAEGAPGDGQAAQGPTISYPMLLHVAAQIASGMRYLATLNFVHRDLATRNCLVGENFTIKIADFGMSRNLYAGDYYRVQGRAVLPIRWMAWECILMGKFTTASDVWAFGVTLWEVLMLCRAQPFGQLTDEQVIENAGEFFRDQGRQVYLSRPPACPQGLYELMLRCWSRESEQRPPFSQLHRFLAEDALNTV

[17] = target: Fibroblast growth factor receptor 3 (Homo sapiens) (UniProt P22607); experiment: Inhibition of FGFR3 (unknown origin) at 10 uM
[18] = target: Mast/stem cell growth factor receptor Kit (Homo sapiens) (UniProt P10721); experiment: Inhibition of c-KIT (unknown origin) at 10 uM
[19] = target: Serine/threonine-protein kinase Chk1 (Homo sapiens) (UniProt O14757); experiment: Inhibition of CHK1 (unknown origin) at 10 uM
Serine/threonine-protein kinase Chk1 (Homo sapiens), sequence (O14757 whole entry): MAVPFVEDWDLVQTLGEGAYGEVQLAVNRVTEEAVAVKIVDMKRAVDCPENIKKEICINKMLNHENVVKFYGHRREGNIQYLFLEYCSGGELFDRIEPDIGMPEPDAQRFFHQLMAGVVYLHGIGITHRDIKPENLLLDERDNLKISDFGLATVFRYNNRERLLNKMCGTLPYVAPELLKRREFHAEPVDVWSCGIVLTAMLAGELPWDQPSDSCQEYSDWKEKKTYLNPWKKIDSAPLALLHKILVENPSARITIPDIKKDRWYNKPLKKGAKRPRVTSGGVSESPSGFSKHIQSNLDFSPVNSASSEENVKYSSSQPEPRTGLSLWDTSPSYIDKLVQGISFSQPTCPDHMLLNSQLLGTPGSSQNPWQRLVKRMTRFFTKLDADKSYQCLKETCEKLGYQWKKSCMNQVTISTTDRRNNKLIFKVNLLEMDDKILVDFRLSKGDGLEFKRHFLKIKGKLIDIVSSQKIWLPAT

[20] = target: Receptor-type tyrosine-protein kinase FLT3 (Homo sapiens) (UniProt P36888); experiment: Inhibition of FLT3 (unknown origin) at 10 uM
[21] = target: Serine/threonine-protein kinase B-raf (Homo sapiens) (UniProt P15056); experiment: Inhibition of BRAF (unknown origin) at 10 uM
[22] = target: Hepatocyte growth factor receptor (Homo sapiens) (UniProt P08581); experiment: Inhibition of c-MET (unknown origin) at 10 uM
[23] = target: Cyclin-dependent kinase 4/cyclin D1 (Homo sapiens) (UniProt P11802+P24385); experiment: Inhibition of CDK4/Cyclin D1 (unknown origin) at 10 uM; format: protein-complex assay
[24] = target: Receptor tyrosine-protein kinase erbB-2 (Homo sapiens) (UniProt P04626); experiment: Inhibition of ErbB2 (unknown origin) at 10 uM
Receptor tyrosine-protein kinase erbB-2 (Homo sapiens), sequence (P04626 whole entry): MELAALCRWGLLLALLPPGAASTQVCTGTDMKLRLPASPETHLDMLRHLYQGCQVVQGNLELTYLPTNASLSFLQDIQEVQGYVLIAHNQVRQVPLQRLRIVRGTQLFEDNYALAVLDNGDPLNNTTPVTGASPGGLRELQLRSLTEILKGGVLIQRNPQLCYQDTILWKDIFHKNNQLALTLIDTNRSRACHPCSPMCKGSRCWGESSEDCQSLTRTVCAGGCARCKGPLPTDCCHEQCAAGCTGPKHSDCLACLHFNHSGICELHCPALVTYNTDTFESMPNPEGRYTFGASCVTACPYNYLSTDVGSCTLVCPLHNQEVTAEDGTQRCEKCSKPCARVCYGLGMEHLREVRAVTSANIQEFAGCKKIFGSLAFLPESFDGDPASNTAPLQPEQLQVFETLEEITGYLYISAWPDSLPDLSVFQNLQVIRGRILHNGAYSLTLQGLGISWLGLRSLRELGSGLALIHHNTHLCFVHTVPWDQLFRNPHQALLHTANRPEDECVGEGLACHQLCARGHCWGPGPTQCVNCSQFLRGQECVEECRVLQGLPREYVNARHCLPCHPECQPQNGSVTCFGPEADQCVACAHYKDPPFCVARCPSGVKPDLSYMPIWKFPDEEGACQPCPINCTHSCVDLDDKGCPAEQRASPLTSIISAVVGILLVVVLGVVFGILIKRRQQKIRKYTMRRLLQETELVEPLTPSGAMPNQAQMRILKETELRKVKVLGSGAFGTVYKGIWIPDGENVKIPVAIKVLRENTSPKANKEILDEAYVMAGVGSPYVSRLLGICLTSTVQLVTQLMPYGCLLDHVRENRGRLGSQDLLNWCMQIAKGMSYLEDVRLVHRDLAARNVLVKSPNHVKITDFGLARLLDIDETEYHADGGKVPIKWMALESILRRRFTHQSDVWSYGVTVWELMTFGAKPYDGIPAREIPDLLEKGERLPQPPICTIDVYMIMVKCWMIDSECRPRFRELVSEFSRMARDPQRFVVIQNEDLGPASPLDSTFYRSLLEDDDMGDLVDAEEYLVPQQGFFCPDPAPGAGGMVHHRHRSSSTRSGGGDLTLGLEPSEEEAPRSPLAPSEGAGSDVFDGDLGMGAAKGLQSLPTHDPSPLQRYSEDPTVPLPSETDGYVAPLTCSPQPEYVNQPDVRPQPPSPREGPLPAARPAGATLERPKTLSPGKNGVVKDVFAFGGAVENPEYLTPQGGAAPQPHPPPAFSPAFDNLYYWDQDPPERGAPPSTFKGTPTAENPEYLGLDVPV

[25] = target: Angiopoietin-1 receptor (Homo sapiens) (UniProt Q02763); experiment: Inhibition of TIE2 (unknown origin) at 10 uM
[26] = target: Serine/threonine-protein kinase pim-1 (Homo sapiens) (UniProt P11309); experiment: Inhibition of PIM1 (unknown origin) at 10 uM
Serine/threonine-protein kinase pim-1 (Homo sapiens), sequence (P11309 whole entry, looked up): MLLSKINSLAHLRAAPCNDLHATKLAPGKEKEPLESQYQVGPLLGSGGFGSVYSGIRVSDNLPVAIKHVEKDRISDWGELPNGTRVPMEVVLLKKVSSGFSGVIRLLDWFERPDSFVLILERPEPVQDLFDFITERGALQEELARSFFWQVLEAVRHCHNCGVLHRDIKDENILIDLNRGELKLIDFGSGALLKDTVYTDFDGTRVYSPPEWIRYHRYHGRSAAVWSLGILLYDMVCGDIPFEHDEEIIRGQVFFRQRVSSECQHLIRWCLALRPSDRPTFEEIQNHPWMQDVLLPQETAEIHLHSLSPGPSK

[27] = target: CDK2/Cyclin A2 (Homo sapiens) (UniProt P24941+P20248); experiment: Inhibition of CDK2/cyclin A (unknown origin) at 10 uM; format: protein-complex assay
[28] = target: Insulin receptor (Homo sapiens) (UniProt P06213); experiment: Inhibition of INSR (unknown origin) at 10 uM
[29] = target: Protein kinase C alpha type (Homo sapiens) (UniProt P17252); experiment: Inhibition of PKCalpha (unknown origin) at 10 uM
[30] = target: Tyrosine-protein kinase CSK (Homo sapiens) (UniProt P41240); experiment: Inhibition of CSK (unknown origin) at 10 uM
Tyrosine-protein kinase CSK (Homo sapiens), sequence (P41240 2-450 limits assumed): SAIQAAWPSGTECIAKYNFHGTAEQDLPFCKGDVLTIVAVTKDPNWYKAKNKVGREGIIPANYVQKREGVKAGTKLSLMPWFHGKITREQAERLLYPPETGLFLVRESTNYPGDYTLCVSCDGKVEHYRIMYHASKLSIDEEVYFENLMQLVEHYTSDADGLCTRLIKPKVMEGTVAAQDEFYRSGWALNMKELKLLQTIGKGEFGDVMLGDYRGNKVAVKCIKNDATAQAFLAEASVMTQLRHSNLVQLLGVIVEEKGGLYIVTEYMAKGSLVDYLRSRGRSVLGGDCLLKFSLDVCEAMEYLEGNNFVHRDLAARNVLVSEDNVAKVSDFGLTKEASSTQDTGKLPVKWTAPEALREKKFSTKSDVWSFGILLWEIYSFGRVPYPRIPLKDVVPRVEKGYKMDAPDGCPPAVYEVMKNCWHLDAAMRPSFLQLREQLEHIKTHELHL

[31] = target: Inhibitor of nuclear factor kappa-B kinase subunit beta (Homo sapiens) (UniProt O14920); experiment: Inhibition of IKKbeta (unknown origin) at 10 uM
[32] = target: Interleukin-1 receptor-associated kinase 4 (Homo sapiens) (UniProt Q9NWZ3); experiment: Inhibition of IRAK4 (unknown origin) at 10 uM
Interleukin-1 receptor-associated kinase 4 (Homo sapiens), sequence (Q9NWZ3 whole entry): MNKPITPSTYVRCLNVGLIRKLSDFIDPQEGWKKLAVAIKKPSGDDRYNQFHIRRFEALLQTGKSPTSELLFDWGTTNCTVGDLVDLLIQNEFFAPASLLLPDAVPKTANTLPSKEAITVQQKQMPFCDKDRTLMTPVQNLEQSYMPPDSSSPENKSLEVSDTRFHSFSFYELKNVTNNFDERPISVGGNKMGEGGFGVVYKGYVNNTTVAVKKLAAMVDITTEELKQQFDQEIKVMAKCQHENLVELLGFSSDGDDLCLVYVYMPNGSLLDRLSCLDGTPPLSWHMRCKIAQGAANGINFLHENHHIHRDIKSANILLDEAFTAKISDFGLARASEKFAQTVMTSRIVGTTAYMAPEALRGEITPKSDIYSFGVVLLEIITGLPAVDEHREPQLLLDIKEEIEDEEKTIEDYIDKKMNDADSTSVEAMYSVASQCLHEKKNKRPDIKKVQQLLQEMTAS

[33] = target: Mitogen-activated protein kinase 3 (Homo sapiens) (UniProt P27361); experiment: Inhibition of ERK1 (unknown origin) at 10 uM
Mitogen-activated protein kinase 3 (Homo sapiens), sequence (P27361 whole entry): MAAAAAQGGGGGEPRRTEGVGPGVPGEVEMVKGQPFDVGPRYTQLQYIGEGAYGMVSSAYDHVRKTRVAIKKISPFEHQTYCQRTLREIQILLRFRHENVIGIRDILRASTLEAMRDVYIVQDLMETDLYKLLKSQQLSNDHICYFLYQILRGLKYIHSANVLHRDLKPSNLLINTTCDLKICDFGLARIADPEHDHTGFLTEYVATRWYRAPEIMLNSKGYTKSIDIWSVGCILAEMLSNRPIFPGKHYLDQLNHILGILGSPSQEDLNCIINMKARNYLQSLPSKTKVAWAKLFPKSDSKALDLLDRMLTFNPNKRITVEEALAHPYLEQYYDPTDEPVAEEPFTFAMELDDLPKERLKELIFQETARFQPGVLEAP

[34] = target: Rho-associated protein kinase 2 (Homo sapiens) (UniProt O75116); experiment: Inhibition of ROCK2 (unknown origin) at 10 uM

CNC(=O)Nc1sc2c(C(C)C)cc(NS(=O)(=O)c3cccs3)cc2c1C(N)=O
IC50 (HCT-116 [1]): 290 nM
IC50 (HCT-15): 620 nM
IC50 (Aurora kinase A): 32 nM
IC50 (Aurora kinase B): 29 nM
Activity (HCT-116 [2]): Active
Cytokinesis inhibition (active/inactive call) (HCT-116 [3]): Active
Activity (HCT-116 [4]): Active
Cytokinesis inhibition (active/inactive call) (HCT-116 [5]): Active
solubility at 24 h [6]: 1.8 µM (≈ 0.815 µg/mL)
CI (HCT-116 [7]): 1
CI (HT-29 [8]): 1.044
CI (HT-29 [9]): 0.073
CI (HT-29 [10]): 0.102
CI (HT-29 [11]): 0.198
inhibition [12]: 105%
inhibition [13]: 100%
inhibition [14]: 95.7%
inhibition [15]: 95.3%
inhibition [16]: 84.4%
inhibition [17]: 81.6%
inhibition [18]: 71.6%
inhibition [19]: 62.8%
inhibition [20]: 56.8%
inhibition [21]: 53.5%
inhibition [22]: 47.4%
inhibition [23]: 44.1%
inhibition [24]: 35.9%
inhibition [25]: 35.7%
inhibition [26]: 35.7%
inhibition [27]: 33.9%
inhibition [28]: 28.5%
inhibition [29]: 21.4%
inhibition [30]: 17.3%
inhibition [31]: 16.2%
inhibition [32]: 16%
inhibition [33]: 12.4%
inhibition [34]: 11.8%
